Laboratory results: patent publication US8178506B2, “Oligomeric compounds and compositions for use in modulation of small non-coding RNAs” (Regulus Therapeutics Inc., priority 2003, dated 2012)
In the oligonucleotide strings, read from the 5' end, every base follows the letter of its sugar. An asterisk marks phosphorothioate; unmarked linkages are phosphodiester. Other units and linkages are bracketed, terminal groups are in braces. A string of capitals states the bases alone. e = 2'-O-(2-methoxyethyl) (MOE); [5mC] = 5-methylcytosine; d = 2'-deoxy (DNA)

What was measured:
B16-F10 cells = test: Cell cycle assay in B16-F10 cells; format: cell-based, mouse; details: 150 nM, 48 hours, relative to untreated control
Protocol: (§1) BJ cells were routinely cultured in MEM high glucose with 2 mM L-glutamine and Earle's BSS adjusted to contain 1.5 g/L sodium bicarbonate and supplemented with 10% fetal bovine serum, 0.1 mM non-essential amino acids and 1.0 mM sodium pyruvate (all media and supplements from Invitrogen Life Technologies, Carlsbad, Calif.). B16-F10 cells were routinely cultured in DMEM high glucose (Invitrogen Life Technologies, Carlsbad, Calif.) supplemented with 10% fetal bovine serum (Invitrogen Life Technologies, Carlsbad, Calif.). T47D cells were cultured in DMEM High glucose media (Invitrogen Life Technologies, Carlsbad, Calif.) supplemented with 10% fetal bovine serum. […] Cells were plated on collagen-coated 24-well plates (Falcon-Primaria #3047, BD Biosciences, Bedford, Mass.) at approximately 50,000 cells per well and allowed to attach to wells overnight.
(§2) In further studies, additional cell lines were treated with oligomeric compounds targeted against miRNAs to assess the effects of each oligomeric compound on cell cycling. BJ, B16, T47D, and HeLa cells were cultured and transfected as described above. […] T47Dp53 cells are T47D cells that have been transfected with and selected for maintenance of a plasmid that expresses a wildtype copy of the p53 gene (for example, pCMV-p53; Clontech, Palo Alto, Calif.), using standard laboratory procedures. BJ cells were treated with 200 nM of each oligomeric compound, and T47D, T47Dp53, HeLa, and B16 cells were treated with 150 nM of each oligomeric compound. The human foreskin fibroblast BJ cell line represents a non-cancer cell line, while HeLa, T47D, T47Dp53 cells and the mouse melanoma cell line B16-F10 represent cancerous cell lines. For comparison, oligomeric compounds ISIS 183891 (SEQ ID NO: 847) and ISIS 285717 ([…]; herein incorporated as SEQ ID NO: 857), both targeting the kinesin-like 1/Eg5 mRNA, involved in cell cycling, were used as positive controls. The random-mer ISIS 29848 was used as a negative control. Additionally, the oligomeric compounds ISIS Number 25690 ([…]; herein incorporated as SEQ ID NO: 858) and ISIS Number 25691 ([…]; herein incorporated as SEQ ID NO: 859), targeted to nucleotides 3051-3070 and 3085-3104, respectively, of the mRNA encoding the Drosha RNase III (GenBank Accession NM_013235.2, incorporated herein as SEQ ID NO: 860) were also tested. ISIS Number 25690 and ISIS Number 25691 are 5-10-52′-MOE gapmer compounds, 20 nucleotides in length, with phosphorothioate internucleoside linkages throughout the oligomeric compound. All cytidine residues are 5-methylcytidines. Transfections were performed using the methods described herein. Cells were prepared for flow cytometry 48-hours after oligonucleotide treatment. Results of these studies are shown in Table 35, where data are expressed as percentage of cells in each phase relative to the untreated control cells in that phase.

BJ cells = test: Cell cycle assay in BJ cells; format: cell-based, human; details: 200 nM, 48 hours; for % cells in cell cycle phase G1 / % cells in cell cycle phase G2/M / % cells in cell cycle phase S / % cells in cell cycle phase aneuploid / % cells in cell cycle phase subG1: relative to untreated control
Protocol: as §1, §2

HeLa cells = test: Cell cycle assay in HeLa cells; format: cell-based, human; details: for % cells aneuploid / % cells in cell cycle phase G1 / % cells in cell cycle phase G2/M / % cells in cell cycle phase S / % cells in cell cycle phase subG1 / % cells in cell cycle phase: G1 / % cells in cell cycle phase: G2/M / % cells in cell cycle phase: S / % cells in cell cycle phase: aneuploid / % cells in cell cycle phase: subG1 / % cells in cell cycle phase aneuploid: HeLa cells; for % cells in cell cycle phase: G1 / % cells in cell cycle phase: G2/M / % cells in cell cycle phase: S / % cells in cell cycle phase: aneuploid / % cells in cell cycle phase: subG1: 48 hours after treatment, relative to untreated control (UTC=100)
T47D cells = test: Cell cycle assay in T47D cells; format: cell-based, human; details: 150 nM, 48 hours, relative to untreated control
Protocol: as §1, §2

T47Dp53 cells = test: Cell cycle assay in T47Dp53 cells; format: cell-based, human; details: 150 nM, 48 hours; for % cells in cell cycle phase G1 / % cells in cell cycle phase G2/M / % cells in cell cycle phase S / % cells in cell cycle phase aneuploid / % cells in cell cycle phase subG1: relative to untreated control
Protocol: as §2

mir-15a pri-miRNA = mir-15a pri-miRNA expression in HepG2 cells (real-time RT-PCR); format: cell-based, human; details: for Expression of mir-15a pri-miRNA (% UTC): HepG2 cells, 100 nM, real-time RT-PCR
Protocol: Using the real-time RT-PCR methods described in Example 19, the expression levels of the mir-15a pri-miRNA were compared in HepG2 cells treated with a nested series of chimeric gapmer oligomeric compounds, targeting and spanning the entire length of the mir-15a pri-miRNA; these compounds are shown in Table 45, below. […] All cytidine residues are 5-methylcytidines. Using the transfection methods described herein, HepG2 cells were treated with 100 nM of each of these gapmer oligomeric compounds. Total RNA was isolated from HepG2 cells by lysing cells in 1 mL TRIZOL™ (Invitrogen) using the manufacturer's recommended protocols. Real-time RT-PCR analysis was performed using a primer/probe set specific for the mir-15a pri-miRNA molecule to assess the effects of these compounds on expression of the mir-15a pri-miRNA molecule. ISIS 339317 ([…]; SEQ ID NO.: 885) was used as the forward primer, ISIS 339318 (TGGCCTGCACCTTTTCAAA; SEQ ID NO.: 886) was used as the reverse primer, and ISIS 339319 ([…]; SEQ ID NO.: 887) was used as the probe. Total RNA was quantified using RiboGreen™ RNA quantification reagent (Molecular Probes, Inc. Eugene, Oreg.), expression levels observed for each target are normalized to 5.8S rRNA, and values are expressed relative to the untreated control. Inhibition of expression of the mir15a pri-miRNA by these gapmer oligomeric compounds is expressed as a percentage of RNA levels in untreated control cells.

[1] = 150 nM oligomeric compound, 24 hours, relative to untreated control (UTC = 100)
[2] = 150 nM, 48 hours, relative to untreated control

Substance | % cells in cell cycle phase G1 (B16-F10 cells) [%] | % cells in cell cycle phase G2/M (B16-F10 cells) [%] | % cells in cell cycle phase S (B16-F10 cells) [%] | % cells in cell cycle phase aneuploid (B16-F10 cells) [%] | % cells in cell cycle phase subG1 (B16-F10 cells) [%] | % cells in cell cycle phase G1 (BJ cells) [%] | % cells in cell cycle phase G2/M (BJ cells) [%] | % cells in cell cycle phase S (BJ cells) [%] | % cells in cell cycle phase aneuploid (BJ cells) [%] | % cells in cell cycle phase subG1 (BJ cells) [%] | % cells in cell cycle phase G1 (HeLa cells; [2]) [%] | % cells in cell cycle phase G2/M (HeLa cells; [2]) [%] | % cells in cell cycle phase S (HeLa cells; [2]) [%] | % cells in cell cycle phase aneuploid (HeLa cells; [2]) [%] | % cells in cell cycle phase subG1 (HeLa cells; [2]) [%] | Expression of mir-15a pri-miRNA (% UTC) (mir-15a pri-miRNA) | other results
345395 (AAGGGATTCCTGGGAAAACTGGAC; sugars from the 5' end e5 d10 e9, all phosphorothioate, methylation of C not given here) [compound 345395] | 106 | 115 | 87 | 150 | 147 | 100 | 104 | 97 | 115 | 132 | 108 | 95 | 96 | 139 | 87 | – | % cells aneuploid (HeLa cells; [1]): 77%; % cells in cell cycle phase G1 (HeLa cells; [1]): 54%; % cells in cell cycle phase G2/M (HeLa cells; [1]): 222%; % cells in cell cycle phase S (HeLa cells; [1]): 82%; % cells in cell cycle phase subG1 (HeLa cells; [1]): 247%; % cells in cell cycle phase: G1 (HeLa cells; 150 nM oligomeric compound): 51%; % cells in cell cycle phase: G2/M (HeLa cells; 150 nM oligomeric compound): 157%; % cells in cell cycle phase: S (HeLa cells; 150 nM oligomeric compound): 192%; % cells in cell cycle phase: aneuploid (HeLa cells; 150 nM oligomeric compound): 87%; % cells in cell cycle phase: subG1 (HeLa cells; 150 nM oligomeric compound): 213%
328744 (antisense e[5mC]*eG*eG*eA*eT*d[5mC]*d[5mC]*dT*dG*dT*dT*dA*d[5mC]*d[5mC]*dT*e[5mC]*eA*e[5mC]*e[5mC]*eA) [compound 328744] | 108 | 110 | 87 | 115 | 153 | 94 | 127 | 111 | 158 | 125 | 53 | 213 | 110 | 178 | 1057 | – | % cells in cell cycle phase G1 (T47D cells): 90%; % cells in cell cycle phase G2/M (T47D cells): 118%; % cells in cell cycle phase S (T47D cells): 87%; % cells in cell cycle phase aneuploid (T47D cells): 191%; % cells in cell cycle phase subG1 (T47D cells): 85%; % cells in cell cycle phase G1 (T47Dp53 cells): 130%; % cells in cell cycle phase G2/M (T47Dp53 cells): 101%; % cells in cell cycle phase S (T47Dp53 cells): 59%; % cells in cell cycle phase aneuploid (T47Dp53 cells): 100%; % cells in cell cycle phase subG1 (T47Dp53 cells): 90%; % cells aneuploid (HeLa cells; [1]): 111%; % cells in cell cycle phase G1 (HeLa cells; [1]): 31%; % cells in cell cycle phase G2/M (HeLa cells; [1]): 167%; % cells in cell cycle phase S (HeLa cells; [1]): 108%; % cells in cell cycle phase subG1 (HeLa cells; [1]): 229%; % cells in cell cycle phase: G1 (HeLa cells; 150 nM oligomeric compound): 31%; % cells in cell cycle phase: G2/M (HeLa cells; 150 nM oligomeric compound): 334%; % cells in cell cycle phase: S (HeLa cells; 150 nM oligomeric compound): 78%; % cells in cell cycle phase: aneuploid (HeLa cells; 150 nM oligomeric compound): 171%; % cells in cell cycle phase: subG1 (HeLa cells; 150 nM oligomeric compound): 1774%
347973 (eG*eG*e[5mC]*eA*eG*d[5mC]*dA*d[5mC]*dA*dA*dT*dA*dT*dG*dG*e[5mC]*e[5mC]*eT*eG*e[5mC]) [compound 347973] | – | – | – | – | – | – | – | – | – | – | – | – | – | – | – | 143.3 | –
347967 (eG*e[5mC]*eA*e[5mC]*e[5mC]*dT*dT*dT*dT*d[5mC]*dA*dA*dA*dA*dT*e[5mC]*e[5mC]*eA*e[5mC]*eA) [compound 347967] | – | – | – | – | – | – | – | – | – | – | – | – | – | – | – | 152.3 | –
347980 (eA*eG*eA*eT*e[5mC]*dA*dG*dA*dT*d[5mC]*d[5mC]*dT*dT*dG*dT*eA*eT*eT*eT*eT; antisense) [compound 347980] | – | – | – | – | – | – | – | – | – | – | – | – | – | – | – | 3.6 | –
ISIS 347968: 5-10-5 2′-MOE gapmer PS; targets mir-15a pri-miRNA (antisense e[5mC]*e[5mC]*eT*eG*e[5mC]*dA*d[5mC]*d[5mC]*dT*dT*dT*dT*d[5mC]*dA*dA*eA*eA*eT*e[5mC]*e[5mC]) | – | – | – | – | – | – | – | – | – | – | – | – | – | – | – | – | expression of the mir-15a pri-miRNA molecule (mir-15a pri-miRNA; HepG2, 100 nM): significant inhibition of expression of the mir-15a pri-miRNA molecule
25691 (antisense eG*e[5mC]*e[5mC]*eA*eA*dG*dG*d[5mC]*dG*dT*dG*dA*d[5mC]*dA*dT*eG*eA*eT*eA*eT) [compound 25691] | 116 | 99 | 83 | 105 | 316 | 94 | 125 | 116 | 209 | 183 | 53 | 113 | 141 | 203 | 881 | – | % cells in cell cycle phase G1 (T47D cells): 94%; % cells in cell cycle phase G2/M (T47D cells): 104%; % cells in cell cycle phase S (T47D cells): 104%; % cells in cell cycle phase aneuploid (T47D cells): 203%; % cells in cell cycle phase subG1 (T47D cells): 125%; % cells in cell cycle phase G1 (T47Dp53 cells): 130%; % cells in cell cycle phase G2/M (T47Dp53 cells): 93%; % cells in cell cycle phase S (T47Dp53 cells): 66%; % cells in cell cycle phase aneuploid (T47Dp53 cells): 95%; % cells in cell cycle phase subG1 (T47Dp53 cells): 212%
ISIS 328744: SEQ ID NO: 653, targeting mir-182 (e[5mC]*eG*eG*eA*eT*d[5mC]*d[5mC]*dT*dG*dT*dT*dA*d[5mC]*d[5mC]*dT*e[5mC]*eA*e[5mC]*e[5mC]*eA) | – | – | – | – | – | – | – | – | – | – | – | – | – | – | – | – | effect on cell cycling (BJ cells): not affected; effect on cell cycling (T47Dp53 cells): not affected; phase of the cell cycle in which cells arrest or delay (HeLa cells; HeLa, 150 nM, 48 hours): increase in the percentage of cells in the G2/M-phase of the cell cycle as well as in the subG1 category
